Test results published in ChEMBL document CHEMBL5335815, “The Greater Celandine: Identification and Characterization of an Antimicrobial Peptide from Chelidonium majus” (J Nat Prod, 2024).
Active and inactive are the calls of the source. The calls are words filed in the database; no cut-off is given here. Bridge positions count the residues as written; N and C are the ends. Peptide text beside a SMILES is read from it.

Tests used:
Escherichia coli = test: Induction of BasS protein expression in Escherichia coli assessed as fold increase at 5 microg/ml; type: functional; conditions: dose 5.0 µg/ml
[1] = Proteolytic stability assessed as proteinase K (unknown origin)-mediated compound degradation in presence of reduced and alkylated cysteines measured after 10 mins by LC-MS analysis; type: ADME
[2] = system: Proteinase K (Engyodontium album); test: Inhibition of proteinase K (Engyodontium album)
[3] = Proteolytic stability assessed as proteinase K (unknown origin) mediated compound degradation incubated for 10 mins by LC-MS analysis; type: ADME; conditions: human

Question: With CC[C@H](C)[C@H](NC(=O)[C@H](Cc1ccccc1)NC(=O)[C@H](Cc1ccccc1)NC(=O)[C@H](CCCNC(=N)N)NC(=O)[C@H](CCCNC(=N)N)NC(=O)[C@H](CCCCN)NC(=O)[C@H](CCCCN)NC(=O)[C@H](CC(=O)O)NC(=O)[C@@H](NC(=O)[C@H](CO)NC(=O)[C@H](CCCCN)NC(=O)[C@H](CS)NC(=O)[C@H](Cc1ccc(O)cc1)NC(=O)[C@H](CS)NC(=O)CNC(=O)[C@@H](N)CS)C(C)C)C(=O)N1CCC[C@H]1C(=O)N[C@H](C(=O)N[C@@H](CS)C(=O)N[C@@H](CC(C)C)C(=O)N[C@@H](CCCNC(=N)N)C(=O)N[C@@H](CO)C(=O)N[C@@H](CS)C(=O)N[C@@H](CS)C(=O)N[C@@H](CC(N)=O)C(=O)O)[C@@H](C)O (H-CGCYCKSVDKKRRFFIPTCLRSCCN-OH) as the molecule, how does the fold change (FC) (Escherichia coli) read?
Answer: Its fold change (FC) is 83.8.

Question: Which Stability [1] does the source give for CC[C@H](C)[C@@H]1NC(=O)[C@H](Cc2ccccc2)NC(=O)[C@H](Cc2ccccc2)NC(=O)[C@H](CCCNC(=N)N)NC(=O)[C@H](CCCNC(=N)N)NC(=O)[C@H](CCCCN)NC(=O)[C@H](CCCCN)NC(=O)[C@H](CC(=O)O)NC(=O)[C@H](C(C)C)NC(=O)[C@H](CO)NC(=O)[C@H](CCCCN)NC(=O)[C@@H]2CSSC[C@@H](C(=O)N[C@@H](CC(N)=O)C(=O)O)NC(=O)[C@@H]3CSSC[C@H](N)C(=O)NCC(=O)N[C@@H](CSSC[C@H](NC(=O)[C@H]([C@@H](C)O)NC(=O)[C@@H]4CCCN4C1=O)C(=O)N[C@@H](CC(C)C)C(=O)N[C@@H](CCCNC(=N)N)C(=O)N[C@@H](CO)C(=O)N3)C(=O)N[C@@H](Cc1ccc(O)cc1)C(=O)N2 (H-CGCYCKSVDKKRRFFIPTCLRSCCN-OH; disulfide 1-23, 3-19, 5-24) here?
Answer: Its Stability is “Unstable”.

Question: What about the inhibition [2] of the same molecule?
Answer: Its inhibition is “inactive”.

Question: What about the Stability [3] of the same molecule?
Answer: Its Stability is “Stable”.
